Assay results from patent US11440887B2, “Substituted 1,2,3,4-tetrahydroquinolines as inhibitors of repair enzyme 8-oxoguanine deoxyribonucleic acid glycosylase activity” (The Board of Trustees of the Leland Stanford Junior …, priority 2017, dated 2022).
“And” between values parts separate entries of the source, which are not always exact repeats. Equal values may be shown once.

Legend:
OGG1 [1] = target: T1, OGG1 (Homo sapiens (Human), UniProt O15527); assay: Km and Kcat study (Michaelis-Menten / Lineweaver-Burk) of OGG1 with inhibitor; assay type: biochemical
T1 sequence (O15527 whole entry): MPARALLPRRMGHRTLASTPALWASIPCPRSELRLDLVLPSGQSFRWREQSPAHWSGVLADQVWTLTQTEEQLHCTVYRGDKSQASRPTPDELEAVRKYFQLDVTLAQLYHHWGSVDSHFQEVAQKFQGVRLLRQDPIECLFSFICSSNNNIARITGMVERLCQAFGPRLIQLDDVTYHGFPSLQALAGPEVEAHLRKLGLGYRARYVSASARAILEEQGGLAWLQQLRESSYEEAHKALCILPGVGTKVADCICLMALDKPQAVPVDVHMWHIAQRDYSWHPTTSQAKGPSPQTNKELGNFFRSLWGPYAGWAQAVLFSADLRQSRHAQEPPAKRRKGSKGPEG
Experimental: Methods: For Michaelis-Menten curves: Inhibitor 41 and hOGG1 (100 nM) were incubated in NEBuffer 4 (1×) with BSA (1×) at 37° C. (15 min) in 100 μL reaction volumes in a black 96-well plate. After that, OGR1 (0.8-10 μM) was added to the reaction mixture. Fluorescence at 460 nm was measured on a Thermo Fluoroskan Ascent FL fluorescence plate reader (Aex=355 nm). The initial rate (12 min) was calculated. Lineweaver-Burk plot was leaded from the Michaelis-Menten curves. Km and Vmax were calculated from the equation. Kcat was calculated from Kcat=Vmax/[enzyme].

[2] = target: MTH1 (human MutT homolog 1) (Homo sapiens (Human), UniProt P36639); assay: MTH1 assay (ARGO probe, Kinase-Glo); assay type: biochemical; conditions: 20 μM
Experimental: (30 min). After that, 5 μL of this reaction solution was mixed with 20 μL of Kinase-Glo. Immediately, luminescence was measured on a Thermo Fluoroskan Ascent FL fluorescence plate reader. (See, e.g., Ji, D., et al., J. Am. Chem. Soc. 2016, 138, 9005-9008, the disclosure of which is incorporated herein by reference.) The slope of initial rate (6 min) was calculated, and % of control was used for inhibition activity. MTH1 was purchased from Abcam, PNK buffer was purchased from New England Biolabs, and Kinase-Glo was purchased from Promega.

NUDT16 = NUDT16 (Homo sapiens (Human), UniProt Q96DE0); assay: NUDT16 assay; assay type: biochemical; conditions: 20 μM
Sequence of NUDT16 (Q96DE0 whole entry, species assumed): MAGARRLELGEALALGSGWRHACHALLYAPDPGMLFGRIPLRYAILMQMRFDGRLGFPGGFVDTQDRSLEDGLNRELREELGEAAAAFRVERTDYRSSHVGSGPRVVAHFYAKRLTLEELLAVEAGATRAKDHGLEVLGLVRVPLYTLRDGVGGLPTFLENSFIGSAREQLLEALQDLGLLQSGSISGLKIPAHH
Experimental: After 1 h incubation at 37° C., 5 μL of this reaction solution was added to 20 μL Kinase-Glo Luminescent Kinase Assay reaction solution (prepared as instructed for the ATP determination kit) in a 96 well plate. The bioluminescence signal was recorded at 1 min intervals over 10 min.

ABH2 = ABH2 (Homo sapiens (Human), UniProt Q6NS38); assay: ABH2 assay; assay type: biochemical; conditions: 20 μM inhibitor
Sequence of ABH2 (Q6NS38 whole entry, species assumed): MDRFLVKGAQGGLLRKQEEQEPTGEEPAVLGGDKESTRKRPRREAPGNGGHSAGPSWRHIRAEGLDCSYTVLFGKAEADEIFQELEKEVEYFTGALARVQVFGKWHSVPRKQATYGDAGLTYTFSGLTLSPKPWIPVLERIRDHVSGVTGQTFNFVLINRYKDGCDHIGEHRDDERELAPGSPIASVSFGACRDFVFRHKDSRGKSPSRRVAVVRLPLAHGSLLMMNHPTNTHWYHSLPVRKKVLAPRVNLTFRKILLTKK
Experimental: Enzyme (0.5 μM) was pre-incubated for 5 minutes with 20 μM inhibitor or vehicle or at 37° C. in 50 mM HEPES buffer (pH 8.0) containing 75 μM Fe(NH4)2(SO4)2, 1 mM α-ketoglutarate, 2 mM Sodium ascorbate, 50 μg/ml BSA and 0.4 mg/ml Catalase. The probe (1 μM) was added and fluorescent signal plotted over 10 minutes to calculate initial rate. Inhibitor rates were normalized against the vehicle control rate.

hABH3 = hABH3 (Homo sapiens (Human), UniProt Q96Q83); assay: ABH3 assay (MAQ probe); assay type: biochemical; conditions: 20 μM inhibitor
Sequence of hABH3 (Q96Q83 whole entry): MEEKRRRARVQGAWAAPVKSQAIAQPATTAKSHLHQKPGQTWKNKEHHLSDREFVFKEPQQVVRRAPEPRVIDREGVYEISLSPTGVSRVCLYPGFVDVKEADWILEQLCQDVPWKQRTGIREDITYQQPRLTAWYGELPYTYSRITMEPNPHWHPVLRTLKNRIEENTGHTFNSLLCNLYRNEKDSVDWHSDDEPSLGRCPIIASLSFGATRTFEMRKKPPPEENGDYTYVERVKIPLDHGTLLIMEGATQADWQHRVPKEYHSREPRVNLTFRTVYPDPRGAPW
Experimental: Enzyme (0.5 μM) was pre-incubated for 5 minutes with 20 μM inhibitor or vehicle or at 37° C. in 50 mM HEPES buffer (pH 8.0) containing 75 μM Fe(NH4)2(SO4)2, (See, e.g., Beharry, A. A., et al., J. Am. Chem. Soc. 2016, 138, 3647-3650, the disclosure of which is incorporated herein by reference.) 1 mM α-ketoglutarate, 2 mM Sodium ascorbate, 50 μg/ml BSA and 0.4 mg/ml Catalase. The MAQ probe (1 μM) was added and fluorescent signal plotted over 10 minutes to calculate initial rate. Inhibitor rates were normalized against the vehicle control rate.3

SMUG1 = SMUG1 (Homo sapiens (Human), UniProt Q53HV7); assay: SMUG1 assay; assay type: biochemical; conditions: 20 μM inhibitor
Sequence of SMUG1 (Q53HV7 whole entry, species assumed): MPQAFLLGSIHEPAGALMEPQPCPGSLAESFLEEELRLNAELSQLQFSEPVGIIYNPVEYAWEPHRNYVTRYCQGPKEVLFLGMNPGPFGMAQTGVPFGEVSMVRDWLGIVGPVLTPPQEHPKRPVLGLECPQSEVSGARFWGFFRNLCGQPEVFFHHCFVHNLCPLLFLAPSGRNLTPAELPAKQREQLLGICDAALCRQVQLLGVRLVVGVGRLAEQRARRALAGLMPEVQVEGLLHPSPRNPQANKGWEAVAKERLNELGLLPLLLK
Experimental: (See, e.g., Ono, T., et al., Nucleic Acids Res. 2013, 41, e127-e127, the disclosure of which is incorporated herein by reference.) Enzyme (500 U/mL) was pre-incubated for 5 minutes with 20 μM inhibitor or vehicle or at 37° C. in 50 mM Tris (pH 7.4), 1 mM DTT and 0.5 mM EDTA. Probe 2 (1 μM) was added and the fluorescent signal was plotted over 15 minutes to calculate initial rate. Inhibitor rates were normalized against the vehicle control rate.

[3] = tested on: Caco-2 cells (clone C2BBe1); assay: CACO-2 permeability assay; assay type: in vitro ADME; conditions: for Recovery: 5 μM, 120 minutes; for Papp AVG: average; for Papp R1: replicate 1
Experimental: Methods: Caco-2 cells (clone C2BBe1) were obtained from American Type Culture Collection (Manassas, Va.). Cell monolayers were grown to confluence on collagen-coated, microporous membranes in 12-well assay plates. Details of the plates and their certification are shown below. The permeability assay buffer was Hanks' balanced salt solution containing 10 mM HEPES and 15 mM glucose at a pH of 7.4. The buffer in the receiver chamber also contained 1% bovine serum albumin. The dosing solution concentration was 5 μM of test article in the assay buffer. Cell monolayers were dosed on the apical side (A-to-B) or basolateral side (B-to-A) and incubated at 37° C. with 5% CO2 in a humidified incubator. Samples were taken from the donor and receiver chambers at 120 minutes. Each determination was performed in duplicate. The flux of Lucifer yellow was also measured post-experimentally for each monolayer to ensure no damage was inflicted to the cell monolayers during the flux period. All samples were assayed by LC-MS/MS using electrospray ionization.

[4] = Half-life / pharmacokinetics after intraperitoneal dosing; assay type: in vivo; conditions: mice, IP, 3 mg/kg
Experimental: Methods: Each OGG1 inhibitor was dosed by intraperitoneal (IP) and oral (PO) routes of administration at a target dose of 3 mg/kg. Blood samples were collected up to 24 hours post-dose, and blood concentrations of the test articles were determined by LC-MS/MS. Pharmacokinetic parameters were determined using Phoenix WinNonlin (v8.0) software

OGG1 [5] = target: T1, OGG1; assay: Surface plasmon resonance (SPR) binding to OGG1
Experimental: Additional embodiments utilize surface plasmon resonance (SPR) to investigate the binding of various compounds to OGG1. […] Specifically, FIG. 8A illustrates a sensorgram plot of binding response versus time, while FIG. 8B illustrates binding response versus concentration of an inhibitor. Further, FIG. 8C provides Ka, Kd and KD values that are calculated for compounds of various embodiments. These figures indicate that certain embodiments bind strongly to OGG1.

## NC(=O)c1cccc(-c2ccc(S(=O)(=O)Nc3ccc4c(c3)N(C(=O)C3CC3)CCC4)cc2)c1 [Compound 41]
OGG1 [1]; OGG1 with 200 nM 41
  Kcat: 0.057 s⁻¹
  Kcat/Km: 0.0070 s^−1μM^−1
  Km: 8.2 µM
OGG1 [1]; OGG1 with 2 μM 41
  Kcat: 0.040 s⁻¹
  Kcat/Km: 0.022 s^−1μM^−1
  Km: 1.8 µM
[2]
  MTH1 enzyme activity in the presence of the inhibitor: > 80%
NUDT16
  NUDT16 enzyme activity in the presence of the inhibitor: ~70%
ABH2
  ABH2 enzyme activity in the presence of the inhibitor: > 90%
hABH3
  ABH3 enzyme activity in the presence of the inhibitor: ~100%
SMUG1
  SMUG1 enzyme activity in the presence of the inhibitor: ~100%
[3]; A-to-B
  Recovery: 65%
  Papp AVG: 12.5 10^−6 cm/s
  Papp R1: 14.2 10^−6 cm/s
[3]; B-to-A / A-to-B
  Efflux Ratio: 6.2
[3]; B-to-A
  Recovery: 79%
  Papp AVG: 77.4 10^−6 cm/s
  Papp R1: 63.5 10^−6 cm/s
[4]
  average exposure, dose-normalized AUClast: 543±281 hr*kg*ng/m L/m g
  maximum blood concentrations (average): 1210 ± 206 ng/mL
  time of maximum blood concentrations post dosing: 15 min
[4]; mean of three replicates, listed as SU0268
  Half-life Mean: approximately 4 hr and 4.02±0.709 hr and 4.02 hr
[4]; replicate 1
  Half-life R1: 4.84 h
[4]; replicate 3
  Half-life R3: 3.60 h
OGG1 [5]
  binding to OGG1 by SPR: binds strongly
